Results taken from patent US20240254119A1 (THIRD HARMONIC BIO, INC., priority 2022, published 2024).

Tests used:
wtKIT [1] = biological target: T1, wtKIT (Homo sapiens, UniProt P10721); test: Caliper biochemical assay, wtKIT; details: Table 6, read-out: KIT Biochemical IC50 avg
T1 construct: 1888289AM in the reaction mixtures
Description: Enzyme, substrate, and cofactors (ATP and Mn^2+) are combined in a well of a microtiter plate and incubated for 3 hours at 25° C. At the end of the incubation, the reaction is quenched by the addition of an EDTA-containing buffer. Substrate and product are separated electrophoretically using the microfluidic-based LabChip 3000 Drug Discovery System from Caliper Life Sciences* and quantitated by fluorescence intensity.
The substrate used in the CSF-1R and PDGFRα assay is FAM-[…]-CONH2 (FAM is carboxyfluorescein). Peptide should be >95% purity. The substrate for the KIT assay is FAM-[…]-NH2.
• 1. To a well of a 384-well plate add 5 μL of 2× enzyme buffer (or control) • 2. Add 100 nL of 100× compound. • 3. Add 5 μL of 2× substrate buffer. • 4. Incubate plate at 25° C. for 3 hours. • 5. Add 10 uL of […]. • 6. Read plate LabChip 3000 Drug Discovery System
• 3 hours at 25° C. where 100% Inhibitor: No enzyme.
• 100 mM HEPES, pH 7.5 0.1% BSA • 0.01% Triton X-100 • 1 mM DTT • 10 mM MnCl2 • 10 μM Sodium Orthovanadate • 10 μM Beta-Glycerophosphate • 400 μM ATP • 1% DMSO (from compound) • 1 μM FAM-[…]-CONH2 5.0 nM wtKIT Enzyme (1888289AM)* • *Specific activity may vary from lot to lot. Enzyme concentration may need to be adjusted to yield 10-20% conversion of substrate to product.

[2] = biological target: T2, BCRP (BCRP-MDCKII monolayer) (Homo sapiens, UniProt Q9UNQ0); test: MDCKII-BCRP bidirectional transport assay; type: in vitro ADME; details: for MDCK-BCRP: Papp A-B: apical to basolateral
T2 construct: host or cells: MDCKII (canine kidney) cells
T2 sequence (Q9UNQ0 1-655): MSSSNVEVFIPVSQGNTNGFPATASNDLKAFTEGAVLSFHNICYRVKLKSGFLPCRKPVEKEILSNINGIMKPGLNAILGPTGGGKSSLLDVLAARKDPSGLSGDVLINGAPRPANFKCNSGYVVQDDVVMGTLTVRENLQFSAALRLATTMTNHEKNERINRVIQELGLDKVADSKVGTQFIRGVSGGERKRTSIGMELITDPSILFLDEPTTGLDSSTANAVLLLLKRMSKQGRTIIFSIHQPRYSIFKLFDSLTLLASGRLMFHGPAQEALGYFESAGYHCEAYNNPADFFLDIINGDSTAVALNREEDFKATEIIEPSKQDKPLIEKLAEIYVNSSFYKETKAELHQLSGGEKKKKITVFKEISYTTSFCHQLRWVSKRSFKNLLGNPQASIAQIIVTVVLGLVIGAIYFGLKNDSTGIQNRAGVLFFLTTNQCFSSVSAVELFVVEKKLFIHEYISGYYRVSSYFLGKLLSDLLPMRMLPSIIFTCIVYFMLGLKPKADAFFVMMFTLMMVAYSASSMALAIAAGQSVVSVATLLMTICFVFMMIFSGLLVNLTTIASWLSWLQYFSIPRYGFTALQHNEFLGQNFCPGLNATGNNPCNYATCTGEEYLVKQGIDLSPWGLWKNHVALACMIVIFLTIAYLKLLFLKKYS
Description: Exemplary compounds were tested for cell permeability in Caco-2, MDCKII-MDR1 and MDCKII-BCRP cell lines with efflux transporter engagement inferred from the efflux ratios determined. Procedures and results are described below. […] This feature of certain compounds is in part due to efflux transporter engagement. See, for instance, exemplary such compounds included in data tables below.
The reference compound Teriflunomide and test compounds are tested in the bidirectional assay. Test compound and reference compounds incubations were tested in duplicates.
The transport assay can be performed between days 12 to day 15 using ready to use PreadyPort™ BCRP-MDCKII monolayer in 96 well plate.
The medium was aspirated from the apical and basal compartments and 75 and 235 μL assay buffer was added to each of the 96 wells of apical and basal compartments of the PreadyPort™ plate.
The plates were pre-incubated for 15 min at 37° C. with 5% CO2 in humidified atmosphere. After preincubation the assay buffer was removed from the apical and basal inserts of the plate.
In apical to basolateral (A→B) transport, 75 μL of test or reference compound working solution to apical inserts and 235 μL of blank assay buffer were added to the corresponding basal compartments.
In basolateral to apical transport, 235 μL of test or reference compound working solution to the basal compartments and 75 μL of blank assay buffer solution were added to corresponding apical inserts.
The sandwich plate was incubated for 120 min in incubator at 5% CO2 and 37° C.
After incubation, 60 μL was transferred from receiver and donor compartments to collection plate.
For donor and C0 samples 20-fold dilution was accomplished by mixing 60 μL of collected sample with 1140 μL of transport buffer and from that solution aliquot 60 μL transfer Both receiver and donor samples were processed by adding […] of acetonitrile containing internal standard (60 μL of sample+240 μL of acetonitrile containing glyburide as internal standard, 125 ng/mL) and vortexing the samples. The compound concentration was measured in all samples using respective calibration standards by LC-MS/MS.
Calculate the Papp and recovery using the given formula:
[formula] [formula] • Where: dQ/dt=Permeability rate in μM/see • C0=Initial concentration in μM • A=Membrane surface area (0.33 cm^2) • V=Volume of receiver chamber • Cend, a=concentration in acceptor well at end of incubation • Cend, d=concentration in donor well at end of incubation • CHBSS=loading concentration measured in HBSS

Kinetic solubility assay = type: physicochemical; details: kinetic solubility, 50 mM PB (pH 7.4), shaken 24 hours at RT
Description: 10 μL of 10 mM in DMSO of test article and control compounds was added into lower chambers of whatman miniuniprep vials, respectively. 490 μL of 50 mM PB (pH 7.4) was then added into lower chambers of the whatman miniuniprep vials, respectively. […] Miniuniprep vials were shaken for 24 hours at RT at the speed of 800 rpm, centrifuged 20 minutes (eg. 4000 rpm) and the filtrates were analyzed by UPLC-UV/HPLC-UV system to calculate the concentration with standard curve.
Filter Membrane: Miniuniprep (PTFE Filter Media with Polypropylene Housing) Cat. No. UN203NPUORG, GE Halthcare Whatman.

wtKIT [3] = biological target: T1, wtKIT; test: HTRF biochemical assay, wtKIT (phosphorylation of a peptide substrate); details: Table 4
How it was run: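 wtKIT (5.0 nM) phosphorylating 1 µM FAM-labelled peptide with 400 µM ATP and 10 mM MnCl2 in 100 mM HEPES pH 7.5, 1% DMSO, 3 h at 25 °C. EDTA quench; phosphopeptide detected with anti-phosphotyrosine antibody by HTRF. Enzyme titrated for 10-20% substrate conversion.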

T1 sequence (P10721 26-976): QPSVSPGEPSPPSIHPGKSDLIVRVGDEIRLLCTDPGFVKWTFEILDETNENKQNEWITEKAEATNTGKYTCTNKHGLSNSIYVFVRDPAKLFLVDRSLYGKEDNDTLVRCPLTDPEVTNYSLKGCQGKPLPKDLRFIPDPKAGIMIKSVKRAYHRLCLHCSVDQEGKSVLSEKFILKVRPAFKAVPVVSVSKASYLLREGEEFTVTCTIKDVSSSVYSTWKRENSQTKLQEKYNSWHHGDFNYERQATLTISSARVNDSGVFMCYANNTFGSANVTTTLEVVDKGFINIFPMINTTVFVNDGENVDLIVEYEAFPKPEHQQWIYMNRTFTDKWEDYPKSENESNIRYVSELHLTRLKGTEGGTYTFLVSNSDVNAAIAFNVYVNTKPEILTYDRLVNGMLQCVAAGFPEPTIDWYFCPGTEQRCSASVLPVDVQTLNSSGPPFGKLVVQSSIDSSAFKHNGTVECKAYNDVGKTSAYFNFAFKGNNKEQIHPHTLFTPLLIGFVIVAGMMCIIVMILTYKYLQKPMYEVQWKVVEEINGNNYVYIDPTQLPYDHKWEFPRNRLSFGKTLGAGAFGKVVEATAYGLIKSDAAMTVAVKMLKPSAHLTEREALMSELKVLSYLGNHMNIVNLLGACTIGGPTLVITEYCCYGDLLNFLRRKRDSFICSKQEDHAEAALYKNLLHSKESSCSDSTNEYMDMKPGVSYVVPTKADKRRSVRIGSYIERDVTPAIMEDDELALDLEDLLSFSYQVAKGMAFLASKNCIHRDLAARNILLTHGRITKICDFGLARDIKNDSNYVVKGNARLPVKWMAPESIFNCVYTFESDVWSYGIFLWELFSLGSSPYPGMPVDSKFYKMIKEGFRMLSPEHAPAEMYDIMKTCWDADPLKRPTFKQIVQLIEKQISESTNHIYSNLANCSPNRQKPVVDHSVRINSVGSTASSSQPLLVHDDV

Row | Compound | IC50 (wtKIT [1]) | MDCK-BCRP: Efflux Ratio [2] | MDCK-BCRP: Papp A-B [2] | Solubility (μM) (Kinetic solubility assay) | IC50 (wtKIT [3])
1 | Cc1ccc(-c2noc(C3CC(O)(c4ccccc4)C3)n2)cc1NC(=O)c1cnc2ccccn12 (centres unmarked) [Compound I-349] | ≤ 50 nM | 2.56 | 16.6 10^−6 cm/s | **** (a solubility less than or equal to 2 μM) | 
2 | COC1(OC)CCC1c1nc(-c2ccc(C)c(NC(=O)c3cnc4ccccn34)c2)no1 (racemic) [Compound I-308] | ≤ 50 nM | 1.13 | 16.3 10^−6 cm/s | *** (a solubility greater than 2 μM and less than or equal to 10 μM) | 
3 | Cc1ccc(-c2noc([C@H]3CCN(C(=O)OC(C)(C)C)C3)n2)cc1NC(=O)c1cnc2ccccn12 [Compound I-398] | 50 to 500 nM | 1.33 | 20.3 10^−6 cm/s | *** (a solubility greater than 2 μM and less than or equal to 10 μM) | 
4 | Cc1ccc(-c2noc(C3CCN3C(=O)OC(C)(C)C)n2)cc1NC(=O)c1cnc2ccccn12 (racemic) [Compound I-395] | 50 to 500 nM | 3.28 | 19 10^−6 cm/s | ** (a solubility greater than 10 μM and less than or equal to 50 μM) | 
5 | COC(=O)C1CC(c2nc(-c3ccc(C)c(NC(=O)c4cnc5ccccn45)c3)no2)C1 (centres unmarked) [Compound I-342] | ≤ 50 nM | 0.47 | 30 10^−6 cm/s | *** (a solubility greater than 2 μM and less than or equal to 10 μM) | 
6 | Cc1ccc(-c2noc(C3CC4(COCCO4)C3)n2)cc1NC(=O)c1cnc2ccccn12 (centres unmarked) [Compound I-343] | ≤ 50 nM | 2.36 | 8.04 10^−6 cm/s | ** (a solubility greater than 10 μM and less than or equal to 50 μM) | 
7 | COCC1(c2nc(-c3ccc(C)c(NC(=O)c4cnc5ccccn45)c3)no2)CC(F)(F)C1 [Compound I-378] | ≤ 50 nM | 0.77 | 16 10^−6 cm/s | **** (a solubility less than or equal to 2 μM) | 
8 | Cc1ccc(-c2noc(C3(C)CC(F)(F)C3)n2)cc1NC(=O)c1cnc2ccccn12 [Compound I-385] | ≤ 50 nM | 1.05 | 14.3 10^−6 cm/s | **** (a solubility less than or equal to 2 μM) | 
9 | COC1(OC)CC(c2nc(-c3ccc(C)c(NC(=O)c4cnc5ccccn45)c3)no2)C1 [Compound I-346] | ≤ 50 nM | 1.33 | 40.1 10^−6 cm/s | *** (a solubility greater than 2 μM and less than or equal to 10 μM) | 
10 | Cc1ccc(-c2noc(C3CCCN3)n2)cc1NC(=O)c1cnc2ccccn12 (racemic) [Compound I-391] | ≤ 50 nM | 12.1 | 2.13 10^−6 cm/s | * (a solubility greater than 50 μM) | 
11 | COC(=O)C1CC(c2nc(-c3ccc(C)c(NC(=O)c4cnc5ccccn45)c3)no2)C1 (centres unmarked) [Compound I-366] | ≤ 50 nM | 1.31 | 10.2 10^−6 cm/s | **** (a solubility less than or equal to 2 μM) | 
12 | CCOC1CC(c2nc(-c3ccc(C)c(NC(=O)c4cnc5ccccn45)c3)no2)C1 (centres unmarked) [Compound I-310] | 50 to 500 nM | 0.81 | 12 10^−6 cm/s | **** (a solubility less than or equal to 2 μM) | 
13 | Cc1ccc(-c2noc(C3CCN(C(=O)OC(C)(C)C)C3)n2)cc1NC(=O)c1cnc2ccccn12 (racemic) [Compound I-399] | 50 to 500 nM | 2.78 | 6.48 10^−6 cm/s | *** (a solubility greater than 2 μM and less than or equal to 10 μM) | 
14 | Cc1ccc(-c2noc([C@H]3C[C@@H]3F)n2)cc1NC(=O)c1cnc2cc(Nc3c(C)cccc3C)ccn12 [Compound I-293] | 50 to 500 nM | 4.55 | 0.02 10^−6 cm/s | *** (a solubility greater than 2 μM and less than or equal to 10 μM) | 
15 | Cc1ccc(-c2noc(C3(C)CC(F)C3)n2)cc1NC(=O)c1cnc2ccccn12 (centres unmarked) [Compound I-386] | ≤ 50 nM | 1.56 | 11.4 10^−6 cm/s | **** (a solubility less than or equal to 2 μM) | 
16 | Cc1ccc(-c2noc([C@H]3CCN3S(=O)(=O)c3cccnc3)n2)cc1NC(=O)c1cnc2ccccn12 [Compound I-233] | 50 to 500 nM |  |  | ** (a solubility greater than 10 μM and less than or equal to 50 μM) | 50 to 500 nM
17 | Cc1ccc(-c2noc(C3CCCCO3)n2)cc1NC(=O)c1cnc2ccccn12 (racemic) [Compound I-397] | ≤ 50 nM | 2.83 | 8.04 10^−6 cm/s | *** (a solubility greater than 2 μM and less than or equal to 10 μM) | 
18 | Cc1ccc(-c2noc(C3CC(O)(C4(O)CCC4)C3)n2)cc1NC(=O)c1cnc2ccccn12 (centres unmarked) [Compound I-357] | 50 to 500 nM | 63.9 | 0.47 10^−6 cm/s | *** (a solubility greater than 2 μM and less than or equal to 10 μM) | 
19 | COC(=O)N1CC(c2nc(-c3ccc(C)c(NC(=O)c4cnc5ccc(OC[C@@H](C)O)cn45)c3)no2)C1 [Compound I-227] | ≤ 50 nM |  |  | ** (a solubility greater than 10 μM and less than or equal to 50 μM) | 50 to 500 nM
